# Measurements published in ChEMBL document CHEMBL2073776, “Interaction of structurally diverse pesticides with the human MDR1 gene product P-glycoprotein” (Toxicol Appl Pharmacol, 1996).
# How the values were obtained:
# Type in all cases: functional, cell-based
# [1] = target: T1, ATP-dependent translocase ABCB1 (Homo sapiens, UniProt P08183); test: TP_TRANSPORTER: inhibition of Doxorubicin efflux (Doxorubicin: 50 uM, Chlorpyrifos: 250 uM) in MDR1-expressing B16/F10 cells; conditions: mouse, b16-f10, 250 µM
# [2] = target: T1, ATP-dependent translocase ABCB1; test: TP_TRANSPORTER: inhibition of Doxorubicin efflux (Doxorubicin: 50 uM, Chlorthiophos: 250 uM) in MDR1-expressing B16/F10 cells; conditions: mouse, b16-f10, 250 µM
# [3] = target: T1, ATP-dependent translocase ABCB1; test: TP_TRANSPORTER: inhibition of Doxorubicin efflux (Doxorubicin: 50 uM, Clotrimazole: 100 uM) in MDR1-expressing B16/F10 cells; conditions: mouse, b16-f10, 100 µM
# [4] = target: T2, MDR1 (ABCB1, ATP-dependent translocase) (Homo sapiens, UniProt P08183); test: TP_TRANSPORTER: inhibition of Doxorubicin efflux (Doxorubicin: 50 uM, Dicapthon: 250 uM) in MDR1-expressing B16/F10 cells; conditions: mouse, probe Doxorubicin
# [5] = target: T1, ATP-dependent translocase ABCB1; test: TP_TRANSPORTER: efflux in MDR1-expressing B16/F10 cells; conditions: mouse
# [6] = target: T2, MDR1 (ABCB1, ATP-dependent translocase); test: TP_TRANSPORTER: inhibition of Doxorubicin efflux (Doxorubicin: 50 uM, Endosulfan: 100 uM) in MDR1-expressing B16/F10 cells; conditions: mouse, probe Doxorubicin
# [7] = target: T1, ATP-dependent translocase ABCB1; test: TP_TRANSPORTER: inhibition of Doxorubicin efflux (Doxorubicin: 50 uM, Fluvalinate: 250 uM) in MDR1-expressing B16/F10 cells; conditions: mouse, b16-f10, 250 µM
# [8] = target: T2, MDR1 (ABCB1, ATP-dependent translocase); test: TP_TRANSPORTER: inhibition of Doxorubicin efflux (Doxorubicin: 50 uM, Heptachlor epoxide: 250 uM) in MDR1-expressing B16/F10 cells; conditions: mouse, probe Doxorubicin
# [9] = target: T2, MDR1 (ABCB1, ATP-dependent translocase); test: TP_TRANSPORTER: inhibition of Doxorubicin efflux (Doxorubicin: 50 uM, Heptachlor: 250 uM) in MDR1-expressing B16/F10 cells; conditions: mouse, probe Doxorubicin
# [10] = target: T2, MDR1 (ABCB1, ATP-dependent translocase); test: TP_TRANSPORTER: inhibition of Doxorubicin efflux (Doxorubicin: 50 uM, Hydramethylnon: 8 uM) in MDR1-expressing B16/F10 cells; conditions: mouse, probe Doxorubicin
# [11] = target: T2, MDR1 (ABCB1, ATP-dependent translocase); test: TP_TRANSPORTER: inhibition of Doxorubicin efflux (Doxorubicin: 50 uM, Chlordecone: 250 uM) in MDR1-expressing B16/F10 cells; conditions: mouse, probe Doxorubicin
# [12] = target: T1, ATP-dependent translocase ABCB1; test: TP_TRANSPORTER: inhibition of Doxorubicin efflux (Doxorubicin: 50 uM, […]: 250 uM) in MDR1-expressing B16/F10 cells; conditions: mouse, b16-f10, 250 µM
# [13] = target: T2, MDR1 (ABCB1, ATP-dependent translocase); test: TP_TRANSPORTER: inhibition of Doxorubicin efflux (Doxorubicin: 50 uM, Parathion: 250 uM) in MDR1-expressing B16/F10 cells; conditions: mouse, probe Doxorubicin
# [14] = target: T1, ATP-dependent translocase ABCB1; test: TP_TRANSPORTER: inhibition of Doxorubicin efflux (Doxorubicin: 50 uM, Phenamiphos: 250 uM) in MDR1-expressing B16/F10 cells; conditions: mouse, b16-f10, 250 µM
# [15] = target: T2, MDR1 (ABCB1, ATP-dependent translocase); test: TP_TRANSPORTER: inhibition of Doxorubicin efflux (Doxorubicin: 50 uM, Tetrachlorohydroquinone: 250 uM) in MDR1-expressing B16/F10 cells; conditions: mouse, probe Doxorubicin
# T1 sequence (P08183 whole entry): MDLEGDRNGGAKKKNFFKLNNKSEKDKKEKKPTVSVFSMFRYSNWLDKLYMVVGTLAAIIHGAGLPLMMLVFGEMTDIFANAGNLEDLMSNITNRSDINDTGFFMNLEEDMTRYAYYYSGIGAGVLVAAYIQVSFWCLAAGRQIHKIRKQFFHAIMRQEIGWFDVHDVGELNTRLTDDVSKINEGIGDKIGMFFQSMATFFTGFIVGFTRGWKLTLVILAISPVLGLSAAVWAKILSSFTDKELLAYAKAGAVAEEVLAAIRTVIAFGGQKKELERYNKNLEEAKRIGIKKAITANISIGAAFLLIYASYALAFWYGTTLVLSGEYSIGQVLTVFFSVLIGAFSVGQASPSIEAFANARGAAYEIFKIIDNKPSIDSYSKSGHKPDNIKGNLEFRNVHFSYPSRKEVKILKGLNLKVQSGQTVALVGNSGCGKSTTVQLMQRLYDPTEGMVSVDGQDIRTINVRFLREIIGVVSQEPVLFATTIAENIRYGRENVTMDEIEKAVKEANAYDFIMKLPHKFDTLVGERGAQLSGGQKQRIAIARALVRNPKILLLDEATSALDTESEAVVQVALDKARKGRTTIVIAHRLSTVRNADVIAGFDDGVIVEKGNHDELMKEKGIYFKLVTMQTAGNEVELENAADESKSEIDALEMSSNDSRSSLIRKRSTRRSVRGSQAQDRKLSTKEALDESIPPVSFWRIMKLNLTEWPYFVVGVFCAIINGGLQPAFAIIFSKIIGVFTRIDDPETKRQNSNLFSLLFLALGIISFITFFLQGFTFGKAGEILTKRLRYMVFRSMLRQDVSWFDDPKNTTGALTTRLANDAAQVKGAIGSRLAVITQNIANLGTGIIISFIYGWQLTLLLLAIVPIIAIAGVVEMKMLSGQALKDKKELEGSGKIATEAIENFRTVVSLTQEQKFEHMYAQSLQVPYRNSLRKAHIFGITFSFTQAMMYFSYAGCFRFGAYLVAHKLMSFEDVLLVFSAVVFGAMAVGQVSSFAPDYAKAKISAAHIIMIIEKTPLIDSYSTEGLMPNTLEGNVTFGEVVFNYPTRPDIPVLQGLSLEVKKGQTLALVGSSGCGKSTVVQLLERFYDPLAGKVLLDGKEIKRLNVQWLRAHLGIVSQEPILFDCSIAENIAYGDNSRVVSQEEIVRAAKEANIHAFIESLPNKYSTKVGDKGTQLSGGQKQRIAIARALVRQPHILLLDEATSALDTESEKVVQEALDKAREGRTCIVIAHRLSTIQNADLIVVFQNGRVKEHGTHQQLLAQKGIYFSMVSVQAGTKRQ
# T2 sequence (P08183 whole entry): as above
smiles,measurement,setting,value
CCOP(=S)(OCC)Oc1nc(Cl)c(Cl)cc1Cl [CHLORPYRIFOS],Inhibition,[1],inhibitor [51-80 % inhibition]
CCOP(=S)(OCC)Oc1cc(Cl)c(SC)cc1Cl [CHLORTHIOPHOS],Inhibition,[2],inhibitor [51-80 % inhibition]
Clc1ccccc1C(c1ccccc1)(c1ccccc1)n1ccnc1 [CLOTRIMAZOLE],Inhibition,[3],inhibitor [51-80 % inhibition]
COP(=S)(OC)Oc1ccc([N+](=O)[O-])cc1Cl [DICAPTHON],inhibition at 250 µM,[4],> 80%
O=S1OCC2C(CO1)C1(Cl)C(Cl)=C(Cl)C2(Cl)C1(Cl)Cl (stereo not given) [ENDOSULFAN],Activity,[5],substrate [+]
same,inhibition at 100 µM,[6],> 80%
CC(C)[C@H](Nc1ccc(C(F)(F)F)cc1Cl)C(=O)OC(C#N)c1cccc(Oc2ccccc2)c1 (stereo not given in full) [FLUVALINATE],Inhibition,[7],inhibitor [31-50 % inhibition]
ClC1=C(Cl)C2(Cl)C3C4OC4C(Cl)C3C1(Cl)C2(Cl)Cl (stereo not given) [HEPTACHLOR EPOXIDE],inhibition at 250 µM,[8],> 80%
ClC1=C(Cl)C2(Cl)C3C(Cl)C=CC3C1(Cl)C2(Cl)Cl (stereo not given) [HEPTACHLOR],inhibition at 250 µM,[9],> 80%
CC1(C)CNC(=NN=C(/C=C/c2ccc(C(F)(F)F)cc2)/C=C/c2ccc(C(F)(F)F)cc2)NC1 [HYDRAMETHYLNON],inhibition at 8 µM,[10],> 80%
O=C1C2(Cl)C3(Cl)C4(Cl)C(Cl)(Cl)C5(Cl)C3(Cl)C1(Cl)C5(Cl)C24Cl (stereo not given) [KEPONE],inhibition at 250 µM,[11],> 80%
COP(=S)(Oc1cc(Cl)c(Br)cc1Cl)c1ccccc1 (stereo not given) [LEPTOPHOS],Inhibition,[12],inhibitor [51-80 % inhibition]
CCOP(=S)(OCC)Oc1ccc([N+](=O)[O-])cc1 [PARATHION],inhibition at 250 µM,[13],> 80%
CCOP(=O)(NC(C)C)Oc1ccc(SC)c(C)c1 (stereo not given) [PHENAMIPHOS],Inhibition,[14],inhibitor [51-80 % inhibition]
Oc1c(Cl)c(Cl)c(O)c(Cl)c1Cl [TETRACHLOROHYDROQUINONE],inhibition at 250 µM,[15],> 80%
